Three compounds from PMC11554305, “Functional identification of soluble uric acid as an endogenous inhibitor of CD38” (eLife, 2024) can be followed below.

Data set [1] can be described thus: Moderate sUA supplementation in mice (plasma, whole blood, tissue and serum levels). Type of data set: in vivo, mouse. Particulars: for Interference with whole blood NAD+ metabolism: OA or inosine alone, 1-day treatment, inflammatory conditions. On the procedure:
Plasma sUA levels in mice were increased to the minimum physiological levels of humans by moderate sUA supplementation. For 1-day sUA supplementation, WT and CD38 KO mice received oral administration of saline, OA (1.5 g/kg), or OA (1.5 g/kg) plus inosine (1.5 g/kg), the gavage volume was 5 mL/kg. Drug suspension in saline was freshly prepared and warmed to 37°C before each treatment. The mice received the first treatment on the evening (19:00) of the first day and the second treatment on the morning (9:00) of the second day. For 3- or 7-day sUA supplementation, WT and CD38 KO mice received the same treatment twice daily from the evening of the first day to the morning of the last day. Four hours after the last treatment, the mice were sacrificed and whole blood, serum, plasma, and tissues were collected for metabolic studies. For immunological studies, mice were stimulated with different ligands 2 hr after the second treatment on the morning (9:00) of the second day.
WT mice received oral administration of saline, OA, or OA plus inosine (1-day supplementation model, as described above). One day (28 hr) or 3 days (76 hr) after the second treatment, the mice were sacrificed and whole blood and plasma were collected.
The collected whole blood samples were immediately diluted 10-fold in 5% ice-cold PCA and homogenized on ice. After 10 min centrifugation at 15,000 rpm, 4°C, the supernatant was subpackaged for measurement or –80°C storage. For NAD^+ measurement in whole blood, the supernatant was handled without freezing and thawing and was measured within 24 hr of sample collection. For measurement of plasma sUA, after sample collection, we immediately diluted the plasma with 5% ice-cold PCA, after vortex, samples were centrifuged at 15,000 rpm, 4°C for 10 min, the collected supernatant was used for the subsequent handling and measurement within 24 hr.
After the collection of blood samples, the mice were immediately perfused with ice-cold sterile PBS. The tissue samples were collected, dried with tissue paper, and weighed. All the tissue samples were immediately homogenized in 5% ice-cold PCA on ice, then centrifuged at 15,000 rpm, 4°C for 10 min. The supernatant was collected and stored at –80°C until further handling for measurement (see LC-MS/MS analysis).
As mentioned above, samples (cells, tissues, blood, or reaction buffer) were treated with ice-cold PCA, after extraction and centrifugation, the collected supernatant was appropriately diluted in 5% ice-cold PCA when applicable, and then was vortexed for 30 s and centrifuged at 15,000 rpm, 4°C for 5 min. Afterward, 30 μL supernatant was added into 200 μL 5 mM ammonium formate containing internal standards at indicated concentrations. Then, all the samples were vortexed for 30 s and centrifuged at 15,000 rpm, 4°C for 5 min again, the final supernatant was used for subsequent measurement. All the samples after handling were immediately analyzed in this study without freezing and thawing.
The LC-MS/MS system consisted of a triple quadrupole LCMS-8050 (Shimadzu) and an LC-30A system (Shimadzu). NAD^+, NMN, and the N-cyclohexyl benzamide (NCB, internal standard, 5 ng/mL) were eluted on Altlantis HILIC Silica (2.1×150 mm, 5 μm) at 40°C using an isocratic mobile phase containing 60% water with 0.1% formic acid and 40% acetonitrile with 0.1% formic acid at 0.4 mL/min. The selected transitions of m/z were 664.10 → 136.10 for NAD^+, 334.95 → 123.15 for NMN, and 204.10 → 122.20 for NCB in positive ion mode. NAD^+ and NMN were measured independently in this study, as their peaks were hardly separated within a short time.
sUA, cADPR, and FYU-981 (internal standard, 1 μM, Fuji Yakuhin Co., Ltd.) were eluted on CAPCELL PAK C8 TYPE UG 120 (2×150 mm, 5 μm) at 40°C. sUA and FYU-981 were separated using a gradient mobile phase containing water with 0.1% formic acid (A) and acetonitrile with 0.1% formic acid (B) at 0.4 mL/min. […]

Data set [2] deals with MSU crystal-induced peritonitis. The experiment in a line: MSU crystal-induced peritonitis. Type of data set: in vivo. Particulars: WT mice, MSU crystals 2 mg/mouse; for Effect on MSU crystal-induced peritonitis: OA or inosine alone, 1-day oral treatment. On the procedure: Plasma sUA levels in WT and CD38 KO mice were increased to the minimum physiological levels of humans by 1-day sUA supplementation (OA plus inosine). Two hours after the last treatment of OA, or OA plus inosine, the mice were intraperitoneally injected with sterile PBS or MSU crystals (2 mg/mouse), and the injection volume was 200 μL/mouse. Six hours after stimulation, the mice were sacrificed and blood samples were collected. For each mouse, the peritoneal cavity was washed with 5 mL ice-cold sterile PBS, the supernatant was collected by centrifugation for subsequent ELISA, and cell pellets were used for total viable cell count by Trypan Blue staining. In brief, cell pellet from 1.5 mL of peritoneal lavage fluid was resuspended in RBC lysis buffer for 30 s, sterile PBS (ninefold volume) was added to terminate lysis. Afterward, the cells were centrifuged at 1000 rpm for 5 min and resuspended in sterile PBS for viable cell count. For neutrophil count, peritoneal lavage fluid was directly used for smears after appropriate dilution, and subsequently, Wright-Giemsa staining was performed according to the protocol provided by the manufacturer.
(§1) Human IL-1β, mouse IL-1β, IL-6, IL-18, TNF-α, and CXCL1 levels were measured according to the protocols provided by the manufacturer. Serum samples were diluted before ELISA when applicable. In this study, all the samples were frozen after collection and thawed before ELISA.

Data set [3] relates to cLPS-induced systemic inflammation. As to the kind of experiment: cLPS-induced systemic inflammation. Particulars: WT mice; for Effect on cLPS-induced systemic inflammation: OA or inosine alone, 1-day oral treatment. In kind it is in vivo, mouse. On the procedure: Plasma sUA levels in WT and CD38 KO mice were increased to the minimum physiological levels of humans by 1-day sUA supplementation (OA plus inosine). Two hours after the last treatment of OA, or OA plus inosine, the mice were intraperitoneally injected with sterile PBS or cLPS (2 or 20 mg/kg), the injection volume was 3 mL/kg. Four hours (20 mg/kg) or 6 hr (2 mg/kg) after stimulation, the mice were sacrificed and whole blood, plasma, and serum were collected.
as §1

Setting [4] is: 6 hr, 1-day sUA supplementation, not in CD38 KO mice.

In the case of `O=C(O)c1nc(=O)[nH]c(=O)[nH]1` [OA, oxonic acid, reference compound], the “Interference with whole blood NAD+ metabolism” value in data set [1] (WT mice) is on record as “had no interference”. Further, the “Effect on plasma sUA levels” value in data set [1] (mice, short-term administration of OA alone) is on record as “failed to increase plasma sUA levels”. Further, the “Effect on MSU crystal-induced peritonitis” value in data set [2] is reported as “hardly affected”. The “Effect on cLPS-induced systemic inflammation” value in data set [3] (cLPS 2 mg/kg) is “hardly affected”.
On to `O=c1[nH]cnc2c1ncn2[C@@H]1O[C@H](CO)[C@@H](O)[C@H]1O` [Inosine, inosine, reference compound], for which, in data set [1] (WT mice), the “Interference with whole blood NAD+ metabolism” value was “had no interference”. Also, the “Effect on MSU crystal-induced peritonitis” value in data set [2] is given as “hardly affected”. In data set [3] (cLPS 2 mg/kg), the “Effect on cLPS-induced systemic inflammation” value was “hardly affected”.
Consider `O=c1[nH]c(=O)c2[nH]c(=O)[nH]c2[nH]1` [sUA, uric acid], for which the “Whole blood NAD+ levels” value in data set [1] (1- or 3-day moderate sUA supplementation (OA plus inosine), WT mice, not in CD38 KO mice) is recorded as “slightly but significantly increased”. In addition, in data set [1] (1-day sUA supplementation, inflammatory conditions (cLPS 2 mg/kg), not under non-inflammatory conditions), the “cADPR production in whole blood” value is recorded as “decrease in cADPR production”. The “NAD+ levels in the brain and heart” value in data set [1] (7-day sUA-supplementation model) is recorded as “appeared to be elevated”. Also, in data set [1] (WT mice, 1-day or 3-day release after 1-day supplementation), the “Plasma sUA and whole blood NAD+ after sUA release” value is recorded as “gradually returned to their initial levels”. The concentration at 4 h in data set [1] (mouse, plasma, mice, oral OA 1.5 g/kg plus inosine 1.5 g/kg, read-out: Plasma sUA levels in the sUA-supplementation models) is around 120 µM. For the same compound, the “NMN levels in vivo” value in data set [1] (sUA supplementation, whole blood) is “minor effect on NMN levels”. Moreover, the “Serum IL-1β production” value in data set [1] (sUA-supplementation models within 7 days) was “did not show an increase”. Also, in data set [2] (setting [4]), the “Production of IL-1β and IL-6, peritoneal lavage fluid” value was “reduced the production of IL-1β and IL-6”; the “Recruitment of viable cells and neutrophils, peritoneal lavage fluid” value is “inhibited the recruitment of viable cells and neutrophils”. For the same compound, in data set [3] (cLPS 2 mg/kg, 6 hr, 1-day sUA supplementation (OA plus inosine), abrogated in CD38 KO mice), the “cLPS-induced production of serum IL-1β and IL-18” value is recorded as “suppressed”. Moreover, the “Serum TNF-α levels” value in data set [3] (cLPS 2 mg/kg, 6 hr, 1-day sUA supplementation) is given as “without affecting”. Besides, in data set [3] (cLPS 20 mg/kg, 4 hr), the “High-dose cLPS-induced systemic inflammation” value is on record as “hardly limited”.
